Patent USRE39609E1, “8-iso-prostaglandins for glaucoma therapy” (Mount Sinai School of Medicine of New York University, priority 1997, dated 2007)

Tests used:
Type in all cases: in vivo
[1] = test system: laser-induced glaucomatous eyes in cynomolgus monkeys; experiment: Intraocular pressure after single topical dose in glaucomatous monkey eyes; details: for Intraocular Pressure (treated - baseline) (mean ± SEM) / relative activity in decreasing IOP among the compounds tested: glaucomatous monkey eyes; for maximum reduction in IOP (mean SEM) / time for which IOP was reduced (p<0.05): single 25 μl dose of 0.1 percent, laser-induced glaucomatous eyes, cynomolgus monkeys; for relative activity in decreasing IOP among the compounds tested: 0.1 percent; for maximum reduction in IOP (mean±SEM) as compared to baseline / time for which IOP was reduced (p<0.005): single 25 μl dose
Experimental: Experiments were performed to evaluate the effects of single dose administration of 8-iso PGE2 an IOP in normal (“N”) and glaucomatous (“G”) monkey eyes, and to determine the mechanism by which 8-iso PGE2 alters IOP in N monkey eyes, when applied topically. A single 25 μl dose study was performed in 6 N and 8 G monkeys. IOP and pupil sizes were measured before and at 0 hr, 0.5 hr and then hourly for a total of 6 hrs after 0.05% or 0.1% drug concentrations were administered. Tonographic outflow facility (“C”) and fluorophotometric aqueous humor flow (F) were determined in 6 N monkeys before and after unilateral application of 25 μl of 0.1% 8-iso PGE2. In 8 G monkey eyes, 8-isoPGE2 reduced IOP (p<0.005) up to 2 hrs or 5 hrs following administration of the 0.05% or 0.1% concentration, respectively. The maximum reduction in IOP was 4.6±0.8 (mean±SEM)mm Hg (0.05%) and 6.6±0.8 mm Hg (0.1%), as compared to baseline measurements. After topical application of 8-iso PGE2 the IOP was lower (p<0.01) in the treated eyes of 6 N monkeys for 4 hrs, with a maximum difference of 3.2±0.2 mmHg, as compared to the fellow contralateral control eyes. The pupil size was smaller (p<0.01) for 4 hrs, up to 1.0±0.2 mm. Compared with vehicle-treated contralateral control eyes, C was greater (p<0.005) by 48% at 2 hr after a single dose of 0.1% 8-iso PGE2. F was unchanged (p<0.10) over a period of 4 hrs after drug administration. […] Because of the individual variability in laser-induced glaucomatous monkey eyes, the IOP and facility measurements are expressed in the table as ratios (value of the drug-treated eye+the value of the vehicle-treated eye). The ratios were calculated from the values of the same glaucomatous monkey eye determined immediately prior to administration of the drug or the vehicle (time 0 hrs.), and the values at 2 hours after administration of the drug or vehicle. […] Thus the mechanism of lowering IOP by 8-iso PGE2 in both normal and glaucomatous eyes is primarily due to an increase in aqueous humor trabecular outflow. IOP was measured one hour before and at intervals up to six hours after a single dose of 8-iso PGE, (the 13, 14 dihydro derivative of 8-iso PGE2), 8-iso PGE2, or 8-iso PGF2α in laser-induced glaucomatous eyes in cynomolgus monkeys (wherein only one eye is rendered glaucomatous and the other serves as a control). Following one day of baseline IOP measurement, a single 25 μl dose of either (i) 0.1 percent 8-iso PGE1, or (ii) 0.1 percent 8-iso PGE2, or (iii) 0.1 percent 8-iso PGF2α, was topically applied to the glaucomatous eye in groups of 4 or 8 monkeys. […] The maximum reduction in IOP was 5.3±0.8 (mean SEM) mm Hg at 2 hours after dosing 8-iso PGE2 (0.1 percent) reduced IOP (p<0.05) for 5 hours with a maximum reduction in IOP of 6.6±0.8 mm Hg at 2 hours after dosing (n=8). […] Based on these studies, of the compounds tested, 8-iso PGE2 appears to have the greatest and 8-iso PGF2α, the least activity in decreasing IOP in glaucomatous monkey eyes.

glaucomatous monkey eyes = experiment: Outflow facility in glaucomatous monkey eyes; details: 0.1%, 8 glaucomatous monkey eyes
Experimental: Because of the individual variability in laser-induced glaucomatous monkey eyes, the IOP and facility measurements are expressed in the table as ratios (value of the drug-treated eye+the value of the vehicle-treated eye). The ratios were calculated from the values of the same glaucomatous monkey eye determined immediately prior to administration of the drug or the vehicle (time 0 hrs.), and the values at 2 hours after administration of the drug or vehicle. […] Thus the mechanism of lowering IOP by 8-iso PGE2 in both normal and glaucomatous eyes is primarily due to an increase in aqueous humor trabecular outflow.

normal monkey eyes [2] = experiment: Pupil size after topical application in normal monkeys
Experimental: (§1) Experiments were performed to evaluate the effects of single dose administration of 8-iso PGE2 an IOP in normal (“N”) and glaucomatous (“G”) monkey eyes, and to determine the mechanism by which 8-iso PGE2 alters IOP in N monkey eyes, when applied topically. A single 25 μl dose study was performed in 6 N and 8 G monkeys. IOP and pupil sizes were measured before and at 0 hr, 0.5 hr and then hourly for a total of 6 hrs after 0.05% or 0.1% drug concentrations were administered. Tonographic outflow facility (“C”) and fluorophotometric aqueous humor flow (F) were determined in 6 N monkeys before and after unilateral application of 25 μl of 0.1% 8-iso PGE2. In 8 G monkey eyes, 8-isoPGE2 reduced IOP (p<0.005) up to 2 hrs or 5 hrs following administration of the 0.05% or 0.1% concentration, respectively. The maximum reduction in IOP was 4.6±0.8 (mean±SEM)mm Hg (0.05%) and 6.6±0.8 mm Hg (0.1%), as compared to baseline measurements. After topical application of 8-iso PGE2 the IOP was lower (p<0.01) in the treated eyes of 6 N monkeys for 4 hrs, with a maximum difference of 3.2±0.2 mmHg, as compared to the fellow contralateral control eyes. The pupil size was smaller (p<0.01) for 4 hrs, up to 1.0±0.2 mm. Compared with vehicle-treated contralateral control eyes, C was greater (p<0.005) by 48% at 2 hr after a single dose of 0.1% 8-iso PGE2. […]

monkey eyes = experiment: Ocular side effects after topical dosing in monkey eyes; details: eyes treated with the 0.1% concentration
Experimental: as §1

normal monkey eyes [3] = experiment: Intraocular pressure after single topical dose in normal monkey eyes
Experimental: Experiments were performed to evaluate the effects of single dose administration of 8-iso PGE2 an IOP in normal (“N”) and glaucomatous (“G”) monkey eyes, and to determine the mechanism by which 8-iso PGE2 alters IOP in N monkey eyes, when applied topically. A single 25 μl dose study was performed in 6 N and 8 G monkeys. […] Tonographic outflow facility (“C”) and fluorophotometric aqueous humor flow (F) were determined in 6 N monkeys before and after unilateral application of 25 μl of 0.1% 8-iso PGE2. In 8 G monkey eyes, 8-isoPGE2 reduced IOP (p<0.005) up to 2 hrs or 5 hrs following administration of the 0.05% or 0.1% concentration, respectively. The maximum reduction in IOP was 4.6±0.8 (mean±SEM)mm Hg (0.05%) and 6.6±0.8 mm Hg (0.1%), as compared to baseline measurements. After topical application of 8-iso PGE2 the IOP was lower (p<0.01) in the treated eyes of 6 N monkeys for 4 hrs, with a maximum difference of 3.2±0.2 mmHg, as compared to the fellow contralateral control eyes. The pupil size was smaller (p<0.01) for 4 hrs, up to 1.0±0.2 mm. Compared with vehicle-treated contralateral control eyes, C was greater (p<0.005) by 48% at 2 hr after a single dose of 0.1% 8-iso PGE2. F was unchanged (p<0.10) over a period of 4 hrs after drug administration.

normal monkey eyes [4] = experiment: Fluorophotometric aqueous humor flow (F) in normal monkeys; details: 6 normal monkeys, over 4 hrs after 25 μl of 0.1%
Experimental: as §1

normal monkey eyes [5] = experiment: Tonographic outflow facility (C) in normal monkeys
Experimental: Experiments were performed to evaluate the effects of single dose administration of 8-iso PGE2 an IOP in normal (“N”) and glaucomatous (“G”) monkey eyes, and to determine the mechanism by which 8-iso PGE2 alters IOP in N monkey eyes, when applied topically. A single 25 μl dose study was performed in 6 N and 8 G monkeys. […] In 8 G monkey eyes, 8-isoPGE2 reduced IOP (p<0.005) up to 2 hrs or 5 hrs following administration of the 0.05% or 0.1% concentration, respectively. The maximum reduction in IOP was 4.6±0.8 (mean±SEM)mm Hg (0.05%) and 6.6±0.8 mm Hg (0.1%), as compared to baseline measurements. After topical application of 8-iso PGE2 the IOP was lower (p<0.01) in the treated eyes of 6 N monkeys for 4 hrs, with a maximum difference of 3.2±0.2 mmHg, as compared to the fellow contralateral control eyes. The pupil size was smaller (p<0.01) for 4 hrs, up to 1.0±0.2 mm. […] F was unchanged (p<0.10) over a period of 4 hrs after drug administration.

[6] = 0.1%, 2 hours after treatment, 6 normal monkeys (Table 1A)
[7] = 0.005%, 6 normal monkeys, 1 hour after treatment
[8] = 0.005%, 1 hour after treatment, 6 normal monkeys (Table 1B)

CCCCC[C@H](O)/C=C/[C@H]1[C@H](O)CC(=O)[C@H]1CCCCCCC(=O)O [8-iso PGE1, 8-iso, 5,6 dihydro prostaglandin E2]
Intraocular Pressure (treated - baseline) (mean ± SEM) ([1]; 0.1%, 1 hr): −3.3 ± 1.3 mm Hg | Intraocular Pressure (treated - baseline) (mean ± SEM) ([1]; 0.1%, 2 hr): −5.3 ± 0.8 mm Hg | Intraocular Pressure (treated - baseline) (mean ± SEM) ([1]; 0.1%, 4 hr): −2.3 ± 0.5 mm Hg | Intraocular Pressure (treated - baseline) (mean ± SEM) ([1]; 0.1%, 6 hr): −1.3 ± 0.9 mm Hg | maximum reduction in IOP (mean SEM) [1]: 5.3±0.8 mm Hg | time for which IOP was reduced (p<0.05) [1]: up to four

CCCCC[C@H](O)/C=C/[C@H]1[C@H](O)CC(=O)[C@H]1C/C=C\CCCC(=O)O [8-iso PGE2, prosta-5,13-dien-1-oic acid, 11,15-dihydroxy-9-oxo, (5Z, 8β, 11α, 13E,15S)]
Outflow facility response ratio (drug-treated/vehicle treated) (glaucomatous monkey eyes; 2 hr): 1.445 ± | % change by drug in outflow facility (glaucomatous monkey eyes; 2 hr vs 0 hr): 38.8% | reduction in pupil size (normal monkey eyes [2]): up to 1.0±0.2 mm | time for which pupil size was smaller (p<0.01) (normal monkey eyes [2]): 4 h | ocular side effects (monkey eyes): Mild eyelid edema, conjunctival edema, hyperemia, and discharge appeared in some eyes | Intraocular Pressure Mean ± SEM, treated eyes (drug) (normal monkey eyes [3]; 0.1%, 6 normal monkeys, 2 hours after treatment): 13.0 ± 0.7 mmHg | lowering of IOP in normal monkey eye (normal monkey eyes [3]; [6]): 20.3% | maximum difference in IOP as compared to fellow contralateral control eyes (normal monkey eyes [3]; 6 normal monkeys, topical application): 3.2±0.2 mmHg | time for which IOP was lower (p<0.01) in treated eyes (normal monkey eyes [3]; 6 normal monkeys, topical application, vs fellow contralateral control eyes): 4 h | Intraocular Pressure response ratio (drug-treated/vehicle-treated) ([1]; 0.1%, 8 glaucomatous monkey eyes, 2 hr): 0.843 ± | % change by drug in intraocular pressure (decrease) ([1]; 0.1%, 8 glaucomatous monkey eyes, 2 hr vs 0 hr): 13.8% | Intraocular Pressure (treated - baseline) (mean ± SEM) ([1]; 0.1%, 1 hr): −4.5 ± 0.9 mm Hg | Intraocular Pressure (treated - baseline) (mean ± SEM) ([1]; 0.1%, 2 hr): −6.6 ± 0.8 mm Hg | Intraocular Pressure (treated - baseline) (mean ± SEM) ([1]; 0.1%, 4 hr): −2.9 ± 0.6 mm Hg | Intraocular Pressure (treated - baseline) (mean ± SEM) ([1]; 0.1%, 6 hr): −1.2 ± 1.2 mm Hg | relative activity in decreasing IOP among the compounds tested [1]: greatest | maximum reduction in IOP (mean±SEM) as compared to baseline ([1]; 8 glaucomatous monkey eyes, 0.05%): 4.6±0.8 mm Hg | time for which IOP was reduced (p<0.005) ([1]; 8 glaucomatous monkey eyes, 0.05% concentration): up to 2 hrs | maximum reduction in IOP (mean±SEM) as compared to baseline ([1]; 8 glaucomatous monkey eyes, 0.1%): 6.6±0.8 mm Hg | time for which IOP was reduced (p<0.005) ([1]; 8 glaucomatous monkey eyes, 0.1% concentration): ≤ 5 h | maximum reduction in IOP (mean SEM) [1]: 6.6±0.8 mm Hg | time for which IOP was reduced (p<0.05) [1]: 5 h | aqueous humor flow F change (normal monkey eyes [4]): unchanged | increase of outflow facility in normal monkey eye (normal monkey eyes [5]; [6]): 43.1% | outflow facility C greater compared with vehicle-treated contralateral control eyes (p<0.005) (normal monkey eyes [5]; 6 normal monkeys, 2 hr after single 25 μl dose of 0.1%): 48%

CCCCC[C@H](O)/C=C/[C@@H]1[C@H](C/C=C\CCCC(=O)O)[C@@H](O)C[C@H]1O [8-iso PGF2α, prosta-5,13-dien-1-oic acid, 9, 11, 15-trihydroxy-, (5Z, 8β, 9α, 11α, 13E, 15S)-]
Intraocular Pressure (treated - baseline) (mean ± SEM) ([1]; 0.1%, 1 hr): −3.3 ± 0.8 mm Hg | Intraocular Pressure (treated - baseline) (mean ± SEM) ([1]; 0.1%, 2 hr): −1.8 ± 1.1 mm Hg | Intraocular Pressure (treated - baseline) (mean ± SEM) ([1]; 0.1%, 4 hr): −0.8 ± 1.7 mm Hg | Intraocular Pressure (treated - baseline) (mean ± SEM) ([1]; 0.1%, 6 hr): 0.3 ± 0.5 mm Hg | relative activity in decreasing IOP among the compounds tested [1]: least | maximum reduction in IOP (mean SEM) [1]: 3.3±0.9 mm Hg | time for which IOP was reduced (p<0.05) [1]: only at 1 hour

CC(C)OC(=O)CCC/C=C\C[C@@H]1[C@@H](CC[C@@H](O)CCc2ccccc2)[C@H](O)C[C@@H]1O [latanoprost, reference compound]
Intraocular Pressure Mean ± SEM, treated eyes (drug) (normal monkey eyes [3]; [7]): 13.2 ± 0.7 mmHg | lowering of IOP in normal monkey eye (normal monkey eyes [3]; [8]): 10.8% | Outflow Facility Mean ± SEM, treated eyes (drug) (normal monkey eyes [5]; [7]): 0.76 ± 0.08 μl/min/mmHg | effect on outflow facility in normal monkey eye (normal monkey eyes [5]; [8]): not significant effect
